SMILES strings stand for the structures.

The test system of the first experiment is IL2 promoter. Nature of the experiment: Human IL2 promoter reporter gene assay (RGA) in Jurkat cells. The class given is cell-based. Particulars: […], heading: IL2 reporter gene assay IC50, anti-CD28 mAb + PMA stimulation 5.5 h. As to the method:
Human IL2 Promoter Reporter Gene Assay (RGA) in Jurkat Cells
The transfected Jurkat clone K22 290_H23 was propagated in RPMI 1640 supplemented with 10% heat inactivated fetal calf serum, 50 μM 2-mercaptoethanol and 1 mg/ml Geneticin. The cell concentration should not exceed 1×10e6/ml during culturing. The cells should not exceed passage 30. Prior to the assay the cells were washed and prepared to the concentration of 2×10e6 cells/ml.
Compound dilutions were made as 2×-concentrated solutions then diluted ½ by addition to cells. Two hundred and fifty μl of compound dilution and 250 μl of cells were mixed together in wells of a 96-deep well plate. Cells/compounds premix were incubated 30 min at 37° C. and 5% CO2 directly in the deep well plate.
After pre-incubation of cells with compounds, cells were stimulated with anti-CD28 mAb (clone 15E8) at 3 μg/ml+PMA at 1 μg/ml. Both co-stimulants were diluted in culture medium at a 10×-concentrated solution. 10 μl of co-stimulants were pipetted into the white 96-well plates and 100 μl of cell/compound mix was immediately added in duplicates. The cells were stimulated for 5.5 h at 37° C. and 5% CO2.
After cell stimulation, 50 μl of BriteLitePlus reagent (Perkin Elmer) was added to each well and the bioluminescence was measured with a Wallac EnVision reader (Perkin Elmer).
On to `CO[C@@H](C)c1c(NC(=O)Nc2cnc(-n3nccn3)c(Cl)c2)cnc2cc(C#N)nn12` [Example 96, (S)-1-(5-chloro-6-(2H-1,2,3-triazol-2-yl)pyridin-3-yl)-3-(2-cyano-7-(1-methoxyethyl)pyrazolo[1,5-a]pyrimidin-6-yl)urea], for which the IC50 came to 52 nM.

As for `COC[C@H](C)c1c(NC(=O)Nc2cnc(-n3nccn3)c(Cl)c2)cnc2cc(Cl)nn12` [Example 45, (R)-1-(5-chloro-6-(2H-1,2,3-triazol-2-yl)pyridin-3-yl)-3-(2-chloro-7-(1-methoxypropan-2-yl)pyrazolo[1,5-a]pyrimidin-6-yl)urea], the IC50 amounted to 63 nM.

Regarding `CO[C@@H](C)c1c(NC(=O)Nc2cncc(C#N)c2)cnc2cc(Cl)nn12` [Example 8, (S)-1-(2-chloro-7-(1-methoxyethyl)pyrazolo[1,5-a]pyrimidin-6-yl)-3-(5-cyanopyridin-3-yl)urea], the IC50 was determined as 109 nM.

As for `COc1ncc(NC(=O)Nc2cnc3cc(Cl)nn3c2C(C)C)cc1Cl` [Example 18, 1-(5-chloro-6-methoxypyridin-3-yl)-3-(2-chloro-7-isopropylpyrazolo[1,5-a]pyrimidin-6-yl)urea], the IC50 came to 245 nM.

Turning to `COC(=O)c1cc(Cl)cc(NC(=O)Nc2cnc3cc(Cl)nn3c2[C@H](C)OC)c1` [Example 13, (S)-methyl 3-chloro-5-(3-(2-chloro-7-(1-methoxyethyl)pyrazolo [1,5-a]pyrimidin-6-yl)ureido)benzoate], the IC50 was found to be 67 nM.

Regarding `Cc1c(NC(=O)Nc2cnc(-n3nccn3)c(Cl)c2)cnc2cc(Cl)nn12` [Example 62, 1-(5-chloro-6-(2H-1,2,3-triazol-2-yl)pyridin-3-yl)-3-(2-chloro-7-methylpyrazolo[1,5-a]pyrimidin-6-yl)urea], the IC50 was 140 nM.

Regarding `COc1ncc(NC(=O)Nc2cnc3cc(Cl)nn3c2C2CCC(C)O2)cc1Cl` (centres unmarked) [Example 87, 1-(5-chloro-6-methoxypyridin-3-yl)-3-(2-chloro-7-(5-methyltetrahydrofuran-2-yl)pyrazolo[1,5-a]pyrimidin-6-yl)urea], the IC50 came to 41 nM.

As for `CO[C@@H](C)c1c(NC(=O)Nc2cnc(-n3nccn3)c(Cl)c2)cnc2cc(F)nn12` [Example 95, (S)-1-(5-chloro-6-(2H-1,2,3-triazol-2-yl)pyridin-3-yl)-3-(2-fluoro-7-(1-methoxyethyl)pyrazolo [1,5-a]pyrimidin-6-yl)urea], the IC50 worked out at 60 nM.

Turning to `CO[C@@H](C)c1c(NC(=O)Nc2ccnc(C#N)c2)cnc2cc(Cl)nn12` [Example 105, (S)-1-(2-chloro-7-(1-methoxyelhyl)pyrazolo[1,5-a]pyrimidin-6-yl)-3-(2-cyanopyridin-4-yl)urea], the IC50 was determined as 112 nM.

As to `Cc1ncn(-c2ccc(NC(=O)Nc3cnc4cc(Cl)nn4c3C(C)C)cc2C#N)n1` [Example 19, 1-(2-chloro-7-isopropylpyrazolo[1,5-a]pyrimidin-6-yl)-3-(3-cyano-4-(3-methyl-1H-1,2,4-triazol-1-yl)phenyl)urea], the IC50 stood at 104 nM.

Turning to `CC(C)c1c(NC(=O)Nc2cc(C(F)(F)F)cn(C)c2=O)cnc2cc(Cl)nn12` [Example 32, 1-(2-chloro-7-isopropylpyrazolo[1,5-a]pyrimidin-6-yl)-3-(1-methyl-2-oxo-5-(trifluoromethyl)-1,2-dihydropyridin-3-yl)urea], the IC50 turned out to be 59 nM.

As to `CC(C)(c1c(NC(=O)Nc2ccnc(C(F)(F)F)c2)cnc2cc(Cl)nn12)C1CCOCC1` [Example 80, 1-(2-chloro-7-(2-(tetrahydro-2H-pyran-4-yl)propan-2-yl)pyrazolo[1,5-a]pyrimidin-6-yl)-3-(2-(trifluoromethyl)pyridin-4-yl)urea], the IC50 is 46 nM.

For `CC1(c2c(NC(=O)Nc3ccnc(C(F)(F)F)c3)cnc3cc(Cl)nn23)CCCO1` (centres unmarked) [Example 36, 1-(2-chloro-7-(2-methyltetrahydrofuran-2-yl)pyrazolo[1,5-a]pyrimidin-6-yl)-3-(2-(trifluoromethyl)pyridin-4-yl)urea], the IC50 was 43 nM.

As for `CO[C@H](c1c(NC(=O)Nc2cnc(-n3nccn3)c(Cl)c2)cnc2cc(Cl)nn12)[C@@H](C)OC` [Example 98, 1-(5-chloro-6-(2H-1,2,3-triazol-2-yl)pyridin-3-yl)-3-(2-chloro-7-((1R,2R)-1,2-dimethoxypropyl)pyrazolo[1,5-a]pyrimidin-6-yl)urea], the IC50 was determined as 115 nM.

As for `CC1(c2c(NC(=O)Nc3ccnc(C(F)(F)F)c3)cnc3cc(Cl)nn23)CC1` [Example 17, 1-(2-chloro-7-(1-methylcyclopropyl)pyrazolo[1,5-a]pyrimidin-6-yl)-3-(2-(trifluoromethyl)pyridin-4-yl)urea], the IC50 came out at 149 nM.

`COCC(OC)c1c(NC(=O)Nc2cnc(-n3nccn3)c(C(F)(F)F)c2)cnc2cc(Cl)nn12` (centres unmarked) [Example 108, 1-(6-(2H-1,2,3-triazol-2-yl)-5-(trifluoromethyl)pyridin-3-yl)-3-(2-chloro-7-(1,2-dimethoxyethyl)pyrazolo[1,5-a]pyrimidin-6-yl)urea]: the IC50 was found to be 17 nM.

`CO[C@H](C)c1c(NC(=O)Nc2ccnc(C(F)(F)F)c2)cnc2cc(Cl)nn12` [Example 47, (R)-1-(2-chloro-7-(1-methoxyethyl)pyrazolo [1,5-a]pyrimidin-6-yl)-3-(2-(trifluoromethyl)pyridin-4-yl)urea]: the IC50 was 94 nM.

Take `COCC1(c2c(NC(=O)Nc3cnc(-n4nccn4)c(Cl)c3)cnc3cc(Cl)nn23)CC1` [Example 76, 1-(5-chloro-6-(2H-1,2,3-triazol-2-yl)pyridin-3-yl)-3-(2-chloro-7-(1-(methoxymethyl)cyclopropyl)pyrazolo[1,5-a]pyrimidin-6-yl)urea]: the IC50 turned out to be 47 nM.

As to `COC(c1c(NC(=O)Nc2ccnc(C(F)(F)F)c2)cnc2cc(Cl)nn12)C1CCOCC1` (centres unmarked) [Example 90, 1-(2-chloro-7-(methoxy(tetrahydro-2H-pyran-4-yl)methyl)pyrazolo[1,5-a]pyrimidin-6-yl)-3-(2-(trifluoromethyl)pyridin-4-yl)urea], the IC50 came to 14 nM.

`CC(C)(C)c1c(NC(=O)Nc2cnc(-n3nccn3)c(Cl)c2)cnc2cc(Cl)nn12` [Example 34, 1-(7-(tert-butyl)-2-chloropyrazolo[1,5-a]pyrimidin-6-yl)-3-(5-chloro-6-(2H-1,2,3-triazol-2-yl)pyridin-3-yl)urea]: the IC50 came out at 145 nM.

Consider `CO[C@@H](C)c1c(NC(=O)Nc2cnc(-n3nccn3)c(C(F)(F)F)c2)cnc2cc(F)nn12` [Example 94, (S)-1-(6-(2H-1,2,3-triazol-2-yl)-5-(trifluoromethyl)pyridin-3-yl)-3-(2-fluoro-7-(1-methoxyethyl)pyrazolo[1,5-a]pyrimidin-6-yl)urea], for which the IC50 worked out at 484 nM.

As for `CO[C@@H](c1c(NC(=O)Nc2cnc(-n3nccn3)c(Cl)c2)cnc2cc(Cl)nn12)C(C)C` [Example 5, (R)-1-(5-chloro-6-(2H-1,2,3-triazol-2-yl)pyridin-3-yl)-3-(2-chloro-7-(1-methoxy-2-methylpropyl)pyrazolo[1,5-a]pyrimidin-6-yl)urea], the IC50 was 52 nM.

For the compound `CC(C)c1c(NC(=O)Nc2cnc(-c3ccnn3C)c(Cl)c2)cnc2cc(Cl)nn12` [Example 29, 1-(5-chloro-6-(1-methyl-1H-pyrazol-5-yl)pyridin-3-yl)-3-(2-chloro-7-isopropylpyrazolo[1,5-a]pyrimidin-6-yl)urea], the IC50 is 221 nM.

As for `COCCO[C@@H](C)c1c(NC(=O)Nc2ccnc(C(F)(F)F)c2)cnc2cc(Cl)nn12` [Example 41, (S)-1-(2-chloro-7-(1-(2-methoxyethoxy)ethyl)pyrazolo[1,5-a]pyrimidin-6-yl)-3-(2-(trifluoromethyl)pyridin-4-yl)urea], the IC50 was determined as 82 nM.

On to `COCC1(c2c(NC(=O)Nc3ccnc(C(F)(F)F)c3)cnc3cc(Cl)nn23)CCC1` [Example 51, 1-(2-chloro-7-(1-(methoxymethyl)cyclobutyl)pyrazolo[1,5-a]pyrimidin-6-yl)-3-(2-(trifluoromethyl)pyridin-4-yl)urea], for which the IC50 was 267 nM.

As for `O=C(Nc1cnc(-n2nccn2)c(C(F)(F)F)c1)Nc1cnc2cc(Cl)nn2c1C1CCCO1` (centres unmarked) [Example 54, 1-(6-(2H-1,2,3-triazol-2-yl)-5-(trifluoromethyl)pyridin-3-yl)-3-(2-chloro-7-(tetrahydrofuran-2-yl)pyrazolo[1,5-a]pyrimidin-6-yl)urea], the IC50 was 266 nM.

As to `CO[C@@H](C)c1c(NC(=O)Nc2ccnc(C(F)F)c2)cnc2cc(Cl)nn12` [Example 92, (S)-1-(2-chloro-7-(1-methoxyethyl)pyrazolo [1,5-a]pyrimidin-6-yl)-3-(2-(difluoromethyl)pyridin-4-yl)urea], the IC50 was 24 nM.

With `CO[C@@H](C)c1c(NC(=O)Nc2ccnc(Cl)c2)cnc2cc(Cl)nn12` [Example 12, (S)-1-(2-chloro-7-(1-methoxyethyl)pyrazolo [1,5-a]pyrimidin-6-yl)-3-(2-chloropyridin-4-yl)urea], the IC50 was found to be 39 nM.

The same experiment, now with this note: anti-CD28 mAb + PMA stimulation 5.5 h.
`CO[C@@H](C)c1c(NC(=O)Nc2ccnc(C(F)(F)F)c2)cnc2cc(Cl)nn12` [Example 2, (S)-1-(2-chloro-7-(1-methoxyethyl)pyrazolo[1,5-a]pyrimidin-6-yl)-3-(2-(trifluoromethyl)pyridin-4-yl)urea]: the IC50 came out at 51 nM.

The values are drawn from patent US10442808B2, “Pyrazolo pyrimidine derivatives and their use as MALT1 inhbitors” (NOVARTIS AG, priority 2014, dated 2019).
